{"source": "patent US5723494A", "about": "“Derivatives of glutamic and aspartic acids, a method of preparing them, and their use as drugs for enhancing memory and learning” (priority 1993, dated 1998)", "key": {"[1]": {"assay": "Memory-enhancement activity in the active avoidance test in the rat", "type": "in vivo, rat (male Wistar)", "settings": "for % variation vs controls, avoidance learning / % variation vs controls, avoidance memory / % variation vs controls, escape response / % variation vs controls, shock response / % variation vs controls, total avoidance response / Average % avoidance learning, last 10 TR / Average % avoidance memory, first 10 TR/40 TR / Average % escape response / Average % shock response / Average % total avoidance response, 40 trials: fifth day", "text": "3) Memory-enhancement activity in the \"active avoidance\" test in the rat\nMale Wistar rats which weighed about 200 g and had not fasted were used. The method consisted of making the animal understand that, in order to avoid a shock, it must go from one compartment of the equipment used (a shuttle box) to the other. For this reason it is defined as active avoidance (because the animal takes action to avoid the punishment).\nIn this test it is also possible to discriminate between two different parameters: memory and learning.\nThe equipment consisted of a cage divided into two portions by a wall with an opening at floor level to enable the animal to go from one portion of the cage to the other.\nThe reinforcement, that is, the reason which forced the rat to become conditioned to the sound and to the light, consisted of an electrical stimulus coming from the grid floor of the cage (an Unconditioned stimulus). The floor of the cage was constituted by a metal grid for the passage of the current and could rock so that, each time the rat passed through the dividing hole, the floor tilted, due to its weight, interrupting the current.\nThe test lasted for five days. On the first day, the animals were subjected to the first session of 40 cycles with an interval of 30 sec between cycles (duration of the session=20 minutes).\nFor each 30 sec cycle, a light stimulus and a sound stimulus lasting for 3 seconds were applied, followed by the 0.4 mA shock, which also lasted for 3 sec.\nAt the end of the first day, the rats were selected randomly in homogeneous groups and treated with the product under test or with physiological solutions (controls).\nOn subsequent days, the rats underwent the first treatment 15 minutes before the session and the second treatment at the end of the day. In 5 days of tests the animal thus underwent 8 treatments in total.\nThe 40 cycles were divided into 4 sessions each of 10 cycles for the 5 days' duration of the test.\nThe performance of each animal was evaluated as: % shock response, % escape response; % total avoidance response (these refer to all 40 cycles of each day); memory, as % of the avoidance responses in the first session of each day (the first 10 cycles); learning: as % of avoidance responses in the fourth session of each day (the last 10 cycles).\nAll the % were calculated on regression lines calculated on the basis of the responses obtained daily for each individual parameter, on the fifth (last) day of the experiment.\nThe results are expressed as the percentage variation of the averages of the individual responses obtained for the treated groups in comparison with the control group. The results thus calculated are given in Table 3 below, which gives the statistical analysis between the treatment groups against the controls, carried out by analysis of the relative variance with respect to the overall results for the 5 days."}, "[2]": {"assay": "Antagonism of the amnesic effect induced by scopolamine in the passive avoidance test in the rat", "type": "in vivo", "settings": "for % Effect vs controls / Latency (STL): FS + SCOP", "experimental": "4) Antagonism of the amnesic effect induced by scopolamine in the \"passive avoidance\" test in the rat.\nThe shuttle box equipment was used for passive avoidance as described in Experiment 2 with the following modifications: the compounds (or physiological solutions for the control group) were administered intraperitoneally (IP) 45 min before the training, whereas scopolamine (SCOP) was administered 30 min before the training. The foot shock (FS) consisted of a 0.2 mA shock of 5 sec duration.\nThe retest to determine memory was executed 24 h after the training. In each individual experiment, the following groups were used: a control group (-FS), a control group (+FS), a control group (FS+SCOP), 3 treatment groups with different doses of the product under test (FS+SCOP)."}}, "note": "“Also recorded” adds a separate entry of the source."}
{"smiles": "CC1(C)CCC(NC(=O)[C@@H](N)CCC(=O)O)CC1", "note": "[Compound 23, 1-(4,4-dimethylcyclohexyl)-L-isoglutamine[4-amino-5-(4',4'-dimethylcyclohexylamine)-5-oxopentanoic acid (S)]]", "values": [{"measurement": "% variation vs controls, avoidance learning", "setting": "[1]; 1 mg/kg i.p. 2/day", "value": "+17.2%"}, {"measurement": "% variation vs controls, avoidance memory", "setting": "[1]; 1 mg/kg i.p. 2/day", "value": -16.7, "unit": "%"}, {"measurement": "% variation vs controls, escape response", "setting": "[1]; 1 mg/kg i.p. 2/day", "value": -11.1, "unit": "%"}, {"measurement": "% variation vs controls, shock response", "setting": "[1]; 1 mg/kg i.p. 2/day", "value": -8.6, "unit": "%"}, {"measurement": "% variation vs controls, total avoidance response", "setting": "[1]; 1 mg/kg i.p. 2/day", "value": "+33.3%"}, {"measurement": "Average % avoidance learning, last 10 TR", "setting": "[1]; 1 mg/kg i.p. 2/day", "value": 34, "unit": "%"}, {"measurement": "Average % avoidance memory, first 10 TR/40 TR", "setting": "[1]; 1 mg/kg i.p. 2/day", "value": 10, "unit": "%"}, {"measurement": "Average % escape response", "setting": "[1]; 1 mg/kg i.p. 2/day", "value": 8, "unit": "%"}, {"measurement": "Average % shock response", "setting": "[1]; 1 mg/kg i.p. 2/day", "value": 64, "unit": "%"}, {"measurement": "Average % total avoidance response, 40 trials", "setting": "[1]; 1 mg/kg i.p. 2/day", "value": 26, "unit": "%"}, {"measurement": "% variation vs controls, avoidance learning", "setting": "[1]; 3 mg/kg i.p. 2/day", "value": "+82.7%"}, {"measurement": "% variation vs controls, avoidance memory", "setting": "[1]; 3 mg/kg i.p. 2/day", "value": "+142%"}, {"measurement": "% variation vs controls, escape response", "setting": "[1]; 3 mg/kg i.p. 2/day", "value": "+144%"}, {"measurement": "% variation vs controls, shock response", "setting": "[1]; 3 mg/kg i.p. 2/day", "value": -51.4, "unit": "%"}, {"measurement": "% variation vs controls, total avoidance response", "setting": "[1]; 3 mg/kg i.p. 2/day", "value": "+109%"}, {"measurement": "Average % avoidance learning, last 10 TR", "setting": "[1]; 3 mg/kg i.p. 2/day", "value": 53, "unit": "%"}, {"measurement": "Average % avoidance memory, first 10 TR/40 TR", "setting": "[1]; 3 mg/kg i.p. 2/day", "value": 29, "unit": "%"}, {"measurement": "Average % escape response", "setting": "[1]; 3 mg/kg i.p. 2/day", "value": 22, "unit": "%"}, {"measurement": "Average % shock response", "setting": "[1]; 3 mg/kg i.p. 2/day", "value": 34, "unit": "%"}, {"measurement": "Average % total avoidance response, 40 trials", "setting": "[1]; 3 mg/kg i.p. 2/day", "value": 44, "unit": "%"}, {"measurement": "% variation vs controls, avoidance learning", "setting": "[1]; 10 mg/kg i.p. 2/day", "value": "+145%"}, {"measurement": "% variation vs controls, avoidance memory", "setting": "[1]; 10 mg/kg i.p. 2/day", "value": "+183%"}, {"measurement": "% variation vs controls, escape response", "setting": "[1]; 10 mg/kg i.p. 2/day", "value": "+241%"}, {"measurement": "% variation vs controls, shock response", "setting": "[1]; 10 mg/kg i.p. 2/day", "value": -81.4, "unit": "%"}, {"measurement": "% variation vs controls, total avoidance response", "setting": "[1]; 10 mg/kg i.p. 2/day", "value": "+166%"}, {"measurement": "Average % avoidance learning, last 10 TR", "setting": "[1]; 10 mg/kg i.p. 2/day", "value": 71, "unit": "%"}, {"measurement": "Average % avoidance memory, first 10 TR/40 TR", "setting": "[1]; 10 mg/kg i.p. 2/day", "value": 34, "unit": "%"}, {"measurement": "Average % escape response", "setting": "[1]; 10 mg/kg i.p. 2/day", "value": 31, "unit": "%"}, {"measurement": "Average % shock response", "setting": "[1]; 10 mg/kg i.p. 2/day", "value": 13, "unit": "%"}, {"measurement": "Average % total avoidance response, 40 trials", "setting": "[1]; 10 mg/kg i.p. 2/day", "value": 56, "unit": "%"}, {"measurement": "Shock responses (in words)", "setting": "[1]; rat, i.p.", "value": "greatly reduced"}, {"measurement": "Total avoidance responses (in words)", "setting": "[1]; rat, i.p.", "value": "significantly increases the total avoidance responses in a dose-dependent manner"}, {"measurement": "% Effect vs controls", "setting": "[2]; 0.1 mg/kg IP", "value": 7.1, "unit": "%"}, {"measurement": "Latency (STL)", "setting": "[2]; 0.1 mg/kg IP", "value": 60.8, "unit": "s"}, {"measurement": "% Effect vs controls", "setting": "[2]; 1 mg/kg IP", "value": 38.0, "unit": "%"}, {"measurement": "Latency (STL)", "setting": "[2]; 1 mg/kg IP", "value": 72.0, "unit": "s"}, {"measurement": "% Effect vs controls", "setting": "[2]; 10 mg/kg IP", "value": 55.8, "unit": "%"}, {"measurement": "Latency (STL)", "setting": "[2]; 10 mg/kg IP", "value": 78.6, "unit": "s"}, {"measurement": "ED50", "setting": "[2]; IP, rat, retest 24 h after training, read-out: ID50 (dose antagonizing the amnesic effect of scopolamine by 50%)", "value": 4.7, "unit": "mg/kg"}, {"measurement": "Antagonism of the amnesic effect of scopolamine (in words)", "setting": "[2]; rat, IP", "value": "antagonizes the amnesic effect induced by scopolamine in a dose-dependent manner; also recorded: comparable, in this model, with that of tacrine"}]}
